Each block holds one compound with its values, some of them ahead of it.
Experiments:
[1] = target: T1, DDX59 C414 (Q5T1V6) (Homo sapiens, UniProt Q5T1V6); test: Competitive isoTOP-ABPP, cell lysates; type: binding
T1 sequence (Q5T1V6 1-619): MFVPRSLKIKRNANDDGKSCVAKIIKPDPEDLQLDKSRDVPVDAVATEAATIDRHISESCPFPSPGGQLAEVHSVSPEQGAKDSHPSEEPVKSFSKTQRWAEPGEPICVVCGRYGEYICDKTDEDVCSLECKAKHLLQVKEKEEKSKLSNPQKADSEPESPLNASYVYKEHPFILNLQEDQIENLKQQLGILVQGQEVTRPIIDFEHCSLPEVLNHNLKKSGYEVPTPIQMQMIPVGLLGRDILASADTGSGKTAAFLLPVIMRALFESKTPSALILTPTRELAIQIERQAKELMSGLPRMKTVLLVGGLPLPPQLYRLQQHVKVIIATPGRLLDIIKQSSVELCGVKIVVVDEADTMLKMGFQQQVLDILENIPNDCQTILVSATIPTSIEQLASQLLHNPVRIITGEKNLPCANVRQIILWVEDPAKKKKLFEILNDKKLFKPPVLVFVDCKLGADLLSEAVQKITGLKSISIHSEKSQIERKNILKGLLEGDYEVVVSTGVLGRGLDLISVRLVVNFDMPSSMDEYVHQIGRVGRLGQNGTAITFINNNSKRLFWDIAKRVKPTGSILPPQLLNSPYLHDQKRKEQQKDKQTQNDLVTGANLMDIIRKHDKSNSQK

[2] = target: RRAGC C377 (Q9HB90) (Homo sapiens, UniProt Q9HB90); test: Competitive isoTOP-ABPP, cell lysates; type: binding; conditions: for R value (DMSO/fragment): in vitro, MDA-MB-231
Chain of RRAGC C377 (Q9HB90) (Q9HB90 2-399 limits assumed): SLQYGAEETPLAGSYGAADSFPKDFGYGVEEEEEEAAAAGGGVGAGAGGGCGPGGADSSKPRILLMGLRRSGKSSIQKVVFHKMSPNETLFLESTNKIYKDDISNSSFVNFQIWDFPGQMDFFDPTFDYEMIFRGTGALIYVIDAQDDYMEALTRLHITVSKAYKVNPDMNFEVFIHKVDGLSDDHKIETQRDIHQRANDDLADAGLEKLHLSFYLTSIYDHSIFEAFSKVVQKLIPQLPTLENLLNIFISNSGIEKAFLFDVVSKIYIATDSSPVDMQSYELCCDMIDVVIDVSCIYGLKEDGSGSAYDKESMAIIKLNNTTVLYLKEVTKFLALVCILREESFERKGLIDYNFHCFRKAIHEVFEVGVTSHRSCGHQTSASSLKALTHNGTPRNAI
Chain of RRAGC C377 (Q9HB90) (Q7L523 whole entry partner, the tested form may be a part): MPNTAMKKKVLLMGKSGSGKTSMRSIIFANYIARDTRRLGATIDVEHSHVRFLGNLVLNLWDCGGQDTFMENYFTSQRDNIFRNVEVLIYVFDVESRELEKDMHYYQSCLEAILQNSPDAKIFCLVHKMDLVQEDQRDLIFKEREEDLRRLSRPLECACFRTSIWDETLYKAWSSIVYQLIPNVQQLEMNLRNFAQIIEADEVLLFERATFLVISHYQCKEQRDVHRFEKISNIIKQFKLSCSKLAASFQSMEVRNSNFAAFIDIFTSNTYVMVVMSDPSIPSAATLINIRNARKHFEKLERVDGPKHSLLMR

[3] = target: CDK5 C157 (Q00535) (Homo sapiens, UniProt Q00535); test: Competitive isoTOP-ABPP, cell lysates; type: binding; conditions: for isoTOP-ABPP ratio (reactivity profile), Q00535_C157: 500 μm in-vitro ramos
Chain of CDK5 C157 (Q00535) (Q00535 whole entry): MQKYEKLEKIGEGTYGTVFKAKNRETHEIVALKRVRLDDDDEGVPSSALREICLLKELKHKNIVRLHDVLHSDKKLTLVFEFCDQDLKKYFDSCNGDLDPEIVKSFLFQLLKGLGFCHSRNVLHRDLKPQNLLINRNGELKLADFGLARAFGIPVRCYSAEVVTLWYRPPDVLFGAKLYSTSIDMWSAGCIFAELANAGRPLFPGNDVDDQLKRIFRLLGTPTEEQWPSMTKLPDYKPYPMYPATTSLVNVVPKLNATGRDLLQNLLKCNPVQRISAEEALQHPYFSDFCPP

[4] = target: EZH2 C503 (Q15910) (Homo sapiens, UniProt Q15910); test: Competitive isoTOP-ABPP, cell lysates; type: binding
[5] = target: LRBA C2675 (P50851) (Homo sapiens, UniProt P50851); test: Competitive isoTOP-ABPP, cell lysates; type: binding
Chain of LRBA C2675 (P50851) (P50851 whole entry, the tested form may be a part): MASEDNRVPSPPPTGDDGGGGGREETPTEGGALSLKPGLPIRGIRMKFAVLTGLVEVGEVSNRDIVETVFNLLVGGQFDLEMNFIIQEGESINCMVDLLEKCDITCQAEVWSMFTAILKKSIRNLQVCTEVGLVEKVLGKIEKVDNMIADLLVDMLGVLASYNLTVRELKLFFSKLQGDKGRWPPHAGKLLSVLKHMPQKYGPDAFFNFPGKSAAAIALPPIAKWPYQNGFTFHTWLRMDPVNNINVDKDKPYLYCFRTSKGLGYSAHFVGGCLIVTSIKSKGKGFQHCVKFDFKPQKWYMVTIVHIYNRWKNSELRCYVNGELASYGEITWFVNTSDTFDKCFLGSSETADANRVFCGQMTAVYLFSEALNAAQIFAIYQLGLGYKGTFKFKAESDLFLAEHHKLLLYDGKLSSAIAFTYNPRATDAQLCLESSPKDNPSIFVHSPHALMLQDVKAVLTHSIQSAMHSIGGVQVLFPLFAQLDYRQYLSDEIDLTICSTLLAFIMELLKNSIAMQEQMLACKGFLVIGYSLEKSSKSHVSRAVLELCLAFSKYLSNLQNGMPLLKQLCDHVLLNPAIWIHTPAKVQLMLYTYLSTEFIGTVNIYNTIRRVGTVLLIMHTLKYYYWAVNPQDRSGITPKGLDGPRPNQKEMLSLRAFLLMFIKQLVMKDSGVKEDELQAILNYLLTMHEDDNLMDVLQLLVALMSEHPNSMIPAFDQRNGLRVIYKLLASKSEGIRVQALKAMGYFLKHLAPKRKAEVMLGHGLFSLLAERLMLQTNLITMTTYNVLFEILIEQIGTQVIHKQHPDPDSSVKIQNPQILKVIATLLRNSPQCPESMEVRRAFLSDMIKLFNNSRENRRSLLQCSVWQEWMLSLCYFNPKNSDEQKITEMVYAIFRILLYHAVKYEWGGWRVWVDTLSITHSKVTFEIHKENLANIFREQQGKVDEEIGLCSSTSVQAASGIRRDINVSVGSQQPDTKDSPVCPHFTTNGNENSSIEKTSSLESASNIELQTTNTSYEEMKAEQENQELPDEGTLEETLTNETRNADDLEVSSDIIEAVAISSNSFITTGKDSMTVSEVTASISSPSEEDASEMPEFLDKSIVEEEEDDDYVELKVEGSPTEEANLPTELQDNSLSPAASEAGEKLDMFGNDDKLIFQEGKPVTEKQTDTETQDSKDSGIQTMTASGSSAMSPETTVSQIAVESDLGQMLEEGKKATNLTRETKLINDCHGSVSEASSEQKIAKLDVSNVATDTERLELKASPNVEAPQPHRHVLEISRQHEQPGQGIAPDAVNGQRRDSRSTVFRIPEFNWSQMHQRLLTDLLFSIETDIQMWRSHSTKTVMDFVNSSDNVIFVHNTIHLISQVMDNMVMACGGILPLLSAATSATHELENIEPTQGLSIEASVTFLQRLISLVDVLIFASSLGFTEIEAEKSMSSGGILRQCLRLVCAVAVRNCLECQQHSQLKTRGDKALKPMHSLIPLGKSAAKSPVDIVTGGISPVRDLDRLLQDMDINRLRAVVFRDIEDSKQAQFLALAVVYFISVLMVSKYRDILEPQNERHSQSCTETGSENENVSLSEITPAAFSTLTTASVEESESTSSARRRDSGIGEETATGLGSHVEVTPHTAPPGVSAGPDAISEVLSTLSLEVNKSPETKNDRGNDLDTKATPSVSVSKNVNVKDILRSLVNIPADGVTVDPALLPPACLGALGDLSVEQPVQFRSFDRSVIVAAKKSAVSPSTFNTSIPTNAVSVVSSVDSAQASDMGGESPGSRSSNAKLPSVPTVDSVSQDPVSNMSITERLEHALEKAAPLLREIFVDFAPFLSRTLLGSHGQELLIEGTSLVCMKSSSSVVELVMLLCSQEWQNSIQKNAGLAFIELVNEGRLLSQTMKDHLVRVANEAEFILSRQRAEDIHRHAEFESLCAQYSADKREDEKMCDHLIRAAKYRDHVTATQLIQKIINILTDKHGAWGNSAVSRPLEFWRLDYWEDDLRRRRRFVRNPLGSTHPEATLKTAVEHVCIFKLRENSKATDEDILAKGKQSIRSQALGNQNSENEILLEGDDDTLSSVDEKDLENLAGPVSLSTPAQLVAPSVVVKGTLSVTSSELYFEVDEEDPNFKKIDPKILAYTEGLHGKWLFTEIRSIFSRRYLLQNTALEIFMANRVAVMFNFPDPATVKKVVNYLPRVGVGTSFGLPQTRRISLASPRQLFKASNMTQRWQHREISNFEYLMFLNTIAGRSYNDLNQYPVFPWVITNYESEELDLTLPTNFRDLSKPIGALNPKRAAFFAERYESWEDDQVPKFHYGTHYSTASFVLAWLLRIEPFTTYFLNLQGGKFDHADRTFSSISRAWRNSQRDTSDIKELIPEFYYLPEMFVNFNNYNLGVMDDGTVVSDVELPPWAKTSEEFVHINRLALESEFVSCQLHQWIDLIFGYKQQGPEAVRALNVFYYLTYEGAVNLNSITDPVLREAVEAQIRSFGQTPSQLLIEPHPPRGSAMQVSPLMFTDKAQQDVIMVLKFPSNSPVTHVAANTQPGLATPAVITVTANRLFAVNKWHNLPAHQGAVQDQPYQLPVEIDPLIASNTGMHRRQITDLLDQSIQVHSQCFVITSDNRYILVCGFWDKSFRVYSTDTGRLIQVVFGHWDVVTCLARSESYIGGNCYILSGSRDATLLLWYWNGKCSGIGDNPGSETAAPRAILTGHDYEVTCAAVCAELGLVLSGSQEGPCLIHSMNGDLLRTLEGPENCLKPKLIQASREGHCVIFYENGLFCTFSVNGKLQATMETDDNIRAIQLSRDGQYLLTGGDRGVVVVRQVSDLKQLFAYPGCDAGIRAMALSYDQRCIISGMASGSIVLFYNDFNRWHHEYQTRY

[6] = target: T2, cysteines in MDA-MB-231 and Ramos cells (Homo sapiens, UniProt Q96S55); test: Competitive isoTOP-ABPP in situ (fragment-treated cells); type: cell-based
T2 sequence (Q96S55 1-665): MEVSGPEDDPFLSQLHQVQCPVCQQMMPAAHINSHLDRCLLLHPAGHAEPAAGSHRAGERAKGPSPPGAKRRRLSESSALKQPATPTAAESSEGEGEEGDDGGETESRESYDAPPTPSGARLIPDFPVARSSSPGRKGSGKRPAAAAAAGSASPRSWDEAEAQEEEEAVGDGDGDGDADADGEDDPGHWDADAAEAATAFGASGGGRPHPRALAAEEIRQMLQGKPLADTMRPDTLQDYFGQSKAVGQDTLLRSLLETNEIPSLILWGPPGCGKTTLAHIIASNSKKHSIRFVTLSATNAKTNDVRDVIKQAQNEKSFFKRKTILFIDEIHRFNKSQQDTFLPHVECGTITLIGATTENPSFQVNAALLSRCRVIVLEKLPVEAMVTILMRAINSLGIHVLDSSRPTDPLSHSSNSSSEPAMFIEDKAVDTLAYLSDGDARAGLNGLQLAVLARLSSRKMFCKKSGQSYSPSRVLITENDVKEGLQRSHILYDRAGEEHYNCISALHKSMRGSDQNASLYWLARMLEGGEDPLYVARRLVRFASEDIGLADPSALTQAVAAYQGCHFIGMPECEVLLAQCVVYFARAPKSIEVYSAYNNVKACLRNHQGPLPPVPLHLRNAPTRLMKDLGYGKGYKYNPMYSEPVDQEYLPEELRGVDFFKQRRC

- isoTOP-ABPP reactivity profile ratio, Q5T1V6_C414 ([1]; 500 μm, in-vitro_ramos_231): 0.8
- isoTOP-ABPP reactivity profile ratio, Q9HB90_C377 ([2]; 500 μm, in-vitro_ramos_231): 0.7
SMILES: O=C(CCl)NC1C(O)OC(CO)C(O)C1O (mixture of isomers) [compound 44]

- R value (DMSO/fragment) ([3]; 500 μM, invitro, ramos): 20.0
- R value (DMSO/fragment) ([1]; 500 μM, invitro, ramos): 6.0
- R value (DMSO/fragment) ([4]; 500 μM, invitro, ramos): 2.0
- R value (DMSO/fragment) ([5]; 500 μM, invitro, ramos): 5.1
- R value (DMSO/fragment) ([2]; 500 μM): 3.7
SMILES: O=C(CCl)Nc1cc(C(F)(F)F)cc(C(F)(F)F)c1 [compound 3]

- isoTOP-ABPP reactivity Q96S55_C272 WRNIP1 ([6]; 200 μM, insitu, 231): 1.2
SMILES: COc1cc2c(cc1OC)CN(C(=O)CCl)CC2 [compound 8]

- isoTOP-ABPP reactivity Q96S55_C272 WRNIP1 ([6]; 200 μM, insitu, 231): 4.5
SMILES: O=C(CCl)N1CCC(Cc2ccccc2)CC1 [compound 9]

- isoTOP-ABPP ratio Q96S55_C272 ([6]; 200 μM, insitu, 231): 1.2
- isoTOP-ABPP ratio, P50851_C2675 ([5]; 500 μM, invitro, ramos): 1.3
SMILES: O=C(CCl)N1CCN(S(=O)(=O)c2ccccc2F)CC1 [compound 10]

- isoTOP-ABPP ratio, Q00535_C157 ([3]; 500 μM, invitro, ramos): 1.3
- isoTOP-ABPP ratio, Q15910_C503 ([4]; 500 μM, invitro, ramos): 1.3
- isoTOP-ABPP ratio, P50851_C2675 ([5]; 500 μM, invitro, ramos): 1.3
- isoTOP-ABPP ratio, Q9HB90_C377 ([2]; 500 μM, invitro, ramos): 1.6
SMILES: Cn1cc(S(=O)(=O)N2CCOCC2)cc1C(=O)NC(=O)CCl [compound 11]

- isoTOP-ABPP ratio Q96S55_C272 ([6]; 200 μM, insitu, 231): 2.4
- isoTOP-ABPP ratio, Q00535_C157 ([3]; 500 μM, invitro, ramos): 1.0
- isoTOP-ABPP ratio, P50851_C2675 ([5]; 500 μM, invitro, ramos): 1.5
SMILES: O=C(CCl)NC(=O)NC12CC3CC(CC(C3)C1)C2 [compound 12]

- isoTOP-ABPP ratio Q96S55_C272 ([6]; 200 μM, insitu, 231): 1.3
- isoTOP-ABPP ratio (reactivity profile), Q5T1V6_C414 ([1]; 500 μm in-vitro ramos_231): 1.2
- isoTOP-ABPP ratio (reactivity profile), P50851_C2675 ([5]; 500 μm in-vitro ramos): 1.5
- isoTOP-ABPP ratio (reactivity profile), P50851_C2675 ([5]; 500 μm in-vitro ramos_231): 0.9
- isoTOP-ABPP ratio (reactivity profile), Q9HB90_C377 ([2]; 500 μm in-vitro ramos_231): 1.4
SMILES: O=C(CCl)NC12CC3CC(CC(C3)C1)C2 [compound 21]

Further lines, the compound ahead of its results:

SMILES: COc1ccc(C2CC(c3cccs3)=NN2C(=O)CCl)cc1 (stereo not drawn) [compound 4]
- isoTOP-ABPP reactivity Q96S55_C272 WRNIP1 ([6]; 100 μM in situ 231): 3.7
- R value (DMSO/fragment) ([3]; 250 μM, in vitro, Ramos): 1.3
- R value (DMSO/fragment) ([4]; 250 μM, in vitro, Ramos): 1.5
- R value (DMSO/fragment) ([5]; 250 μM, in vitro, MDA-MB-231): 1.1
- R value (DMSO/fragment) ([2]; 250 μM): 3.5

SMILES: C=CC(=O)N(c1ccccc1)c1ccc(Br)cc1 [compound 5]
- isoTOP-ABPP ratio, Q00535_C157 ([3]; 500 μM, invitro, ramos): 20.0
- isoTOP-ABPP ratio, Q15910_C503 ([4]; 500 μM, invitro, ramos): 20.0
- isoTOP-ABPP ratio, P50851_C2675 ([5]; 500 μM, invitro, ramos): 20.0

SMILES: CNS(=O)(=O)C=Cc1ccc2c(ccn2Cc2ccccc2)c1 [compound 6]
- isoTOP-ABPP ratio, Q15910_C503 ([4]; 500 μM, invitro, 231): 1.8

SMILES: C=CC(=O)N(Cc1cccnc1)c1ccc(Oc2ccccc2)c(C(F)(F)F)c1 [compound 15]
- isoTOP-ABPP ratio (reactivity profile), Q5T1V6_C414 ([1]; 500 μm in-vitro ramos): 1.0
- isoTOP-ABPP ratio, Q15910_C503 ([4]; 500 μM, invitro, 231): 0.8
- isoTOP-ABPP ratio (reactivity profile), P50851_C2675 ([5]; 500 μm in-vitro ramos): 1.6

SMILES: O=C(CCl)N1CCC(C(O)(c2ccccc2)c2ccccc2)CC1 [compound 20]
- isoTOP-ABPP ratio (reactivity profile), Q00535_C157 [3]: 2.0
- isoTOP-ABPP ratio (reactivity profile), Q5T1V6_C414 ([1]; 500 μm in-vitro ramos): 3.1

SMILES: O=C(CCl)N1CCOCC1 [compound 22]
- isoTOP-ABPP ratio (reactivity profile), Q00535_C157 [3]: 0.9
- isoTOP-ABPP ratio (reactivity profile), Q5T1V6_C414 ([1]; 500 μm in-vitro ramos): 1.3
- isoTOP-ABPP ratio (reactivity profile), P50851_C2675 ([5]; 500 μm in-vitro ramos): 1.1
- isoTOP-ABPP ratio (reactivity profile), P50851_C2675 ([5]; 500 μm in-vitro ramos_231): 1.1
- isoTOP-ABPP ratio (reactivity profile), Q9HB90_C377 ([2]; 500 μm in-vitro ramos): 0.9
- isoTOP-ABPP ratio (reactivity profile), Q9HB90_C377 ([2]; 500 μm in-vitro ramos_231): 1.7

SMILES: N#C/C(=C\c1cc(C(F)(F)F)cc(C(F)(F)F)c1)C(N)=O [compound 23]
- isoTOP-ABPP ratio (reactivity profile), Q00535_C157 [3]: 2.8
- isoTOP-ABPP ratio (reactivity profile), Q5T1V6_C414 ([1]; 500 μm in-vitro ramos): 1.4
- isoTOP-ABPP ratio (reactivity profile), Q15910_C503 ([4]; 500 μm in-vitro ramos): 2.0
- isoTOP-ABPP ratio (reactivity profile), P50851_C2675 ([5]; 500 μm in-vitro ramos): 2.6
- isoTOP-ABPP ratio (reactivity profile), Q9HB90_C377 ([2]; 500 μm in-vitro ramos_231): 1.5

SMILES: CC(Br)C(=O)Nc1cc(C(F)(F)F)cc(C(F)(F)F)c1 (stereo not drawn) [compound 24]
- isoTOP-ABPP ratio (reactivity profile), Q5T1V6_C414 ([1]; 500 μm in-vitro ramos): 1.7
- isoTOP-ABPP ratio (reactivity profile), Q15910_C503 ([4]; 500 μm in-vitro ramos): 1.3
- isoTOP-ABPP ratio (reactivity profile), P50851_C2675 ([5]; 500 μm in-vitro ramos): 1.0
- isoTOP-ABPP ratio (reactivity profile), Q9HB90_C377 ([2]; 500 μm in-vitro ramos): 1.5

SMILES: CC(Cl)C(=O)Nc1cc(C(F)(F)F)cc(C(F)(F)F)c1 (stereo not drawn) [compound 25]
- isoTOP-ABPP ratio (reactivity profile), Q15910_C503 ([4]; 500 μm in-vitro ramos_231): 0.8
- isoTOP-ABPP ratio (reactivity profile), Q9HB90_C377 ([2]; 500 μm in-vitro ramos_231): 1.0
